Experimental data from patent publication US7612108B2, “2-phenylthiophene derivative” (Astellas Pharma Inc., priority 2004, dated 2009).

Columns and labels:
[1] = target: T1, xanthine oxidase (derived from butter milk) (Bos taurus, UniProt P80457); assay: Xanthine oxidase-inhibitory activity (pterin oxidation, fluorescence); format: biochemical; settings: xanthine oxidase 0.03 units/ml, pterin 5 μM
T1 construct: xanthine oxidase (derived from butter milk, manufactured by Sigma); purchased Sigma; host or cells: buttermilk (natural source)
T1 sequence (P80457 whole entry): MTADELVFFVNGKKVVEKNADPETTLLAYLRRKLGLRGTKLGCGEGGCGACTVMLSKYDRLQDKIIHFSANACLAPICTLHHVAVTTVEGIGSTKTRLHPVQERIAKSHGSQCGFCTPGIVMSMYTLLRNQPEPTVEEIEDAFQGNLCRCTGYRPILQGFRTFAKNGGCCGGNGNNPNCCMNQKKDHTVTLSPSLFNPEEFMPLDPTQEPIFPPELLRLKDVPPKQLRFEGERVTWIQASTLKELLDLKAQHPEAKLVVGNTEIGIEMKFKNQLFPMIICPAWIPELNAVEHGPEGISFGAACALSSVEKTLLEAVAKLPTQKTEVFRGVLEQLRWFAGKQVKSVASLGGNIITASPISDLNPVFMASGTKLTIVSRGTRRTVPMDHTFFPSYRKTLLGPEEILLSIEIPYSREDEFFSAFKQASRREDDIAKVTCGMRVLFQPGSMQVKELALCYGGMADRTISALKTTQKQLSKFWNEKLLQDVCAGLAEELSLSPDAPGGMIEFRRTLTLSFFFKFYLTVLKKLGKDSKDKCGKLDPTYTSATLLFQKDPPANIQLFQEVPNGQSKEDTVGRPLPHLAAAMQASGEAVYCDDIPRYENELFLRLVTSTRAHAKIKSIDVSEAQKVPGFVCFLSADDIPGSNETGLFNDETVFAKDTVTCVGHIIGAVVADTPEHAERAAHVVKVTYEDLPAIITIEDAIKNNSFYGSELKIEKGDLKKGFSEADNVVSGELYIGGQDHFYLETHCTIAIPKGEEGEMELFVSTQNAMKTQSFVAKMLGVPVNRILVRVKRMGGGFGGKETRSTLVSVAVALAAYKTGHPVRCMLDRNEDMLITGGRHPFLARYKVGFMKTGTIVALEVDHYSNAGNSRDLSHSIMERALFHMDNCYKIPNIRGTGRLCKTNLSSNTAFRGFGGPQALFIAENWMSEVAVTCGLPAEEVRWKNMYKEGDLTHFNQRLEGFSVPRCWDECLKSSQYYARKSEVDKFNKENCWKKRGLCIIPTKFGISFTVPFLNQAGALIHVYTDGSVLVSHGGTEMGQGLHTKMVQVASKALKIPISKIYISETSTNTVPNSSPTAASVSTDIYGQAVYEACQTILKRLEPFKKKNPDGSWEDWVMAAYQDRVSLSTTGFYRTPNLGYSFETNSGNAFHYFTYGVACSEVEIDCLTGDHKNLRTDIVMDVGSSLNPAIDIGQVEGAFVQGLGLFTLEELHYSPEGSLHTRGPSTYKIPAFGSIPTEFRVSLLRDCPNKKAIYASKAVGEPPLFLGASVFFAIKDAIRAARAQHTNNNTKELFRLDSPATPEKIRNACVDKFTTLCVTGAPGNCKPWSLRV
Experimental: A test compound was dissolved in DMSO (manufactured by Nakarai) so as to be a concentration of 10 mM and then used after the concentration was adjusted to an aimed one at use.
The evaluation of xanthine oxidase-inhibitory activity of the compound of the invention was carried out using a method described in a document (Free Radic. Biol. Med. 6, 607-615, 1992) with partial modification. Namely, xanthine oxidase (derived from butter milk, manufactured by Sigma) was adjusted to 0.03 units/ml using a 50 mM phosphate buffer and was added to a 96-well plate in an amount of 50 μl/well. Each test compound diluted so as to be a final concentration was added thereto in an amount of 2 μl/well, followed by treatment at room temperature for 20 minutes. Pterin (manufactured by Sigma) was added thereto so as to be a final concentration of 5 μM, followed by reaction at room temperature for 10 minutes. Measurement was performed using a microplate reader saphire (manufactured by Tecan) under conditions of excitation at 345 nm and emission at 390 nm (pterin was oxidized by xanthine oxidase into isoxanthopterin, which emitted a light under the conditions).
The concentration of the test compound at which 50% inhibition was observed (IC50 value) was calculated, the emissions of isoxanthopterin under conditions of the presence or absence of xanthine oxidase being 0% inhibition and 100% inhibition, respectively.

ICR mice = assay: Serum uric acid-lowering action after oral administration; format: in vivo; settings: after 2 hours from oral administration, 1 mg/kg
Experimental: A test compound was orally administered compulsorily to ICR mice using an oral sonde. After 2 hours, 6 hours, and, depending on the compound, further 24 hours from the administration, blood was collected from an abdominal aorta and then serum was separated in a usual manner. Serum uric acid was measured on an absorptiometer (SPECTRA MAX 190, manufactured by Molecular Device) by an uricase method using a uric acid-measuring kit (Uric Acid C-TestWako: Wako Pure Chemical Industries, Ltd.) and a uric acid-lowering ratio was determined according to the following equation. Uric acid-lowering ratio (%)=(Uric acid level of control animal−Uric acid level of test compound-administered animal)×100/Uric acid level of control animal

male Wistar rats = assay: Trinitrobenzenesulfonic acid (TNBS)-induced enteritis-inhibitory action; format: in vivo, rat; settings: 3 mg/kg oral once a day, 21st day
Experimental: The effectiveness of the compound of the invention on an enteritis model can be also evaluated by a model using trinitrobenzenesulfonic acid (TNBS) as an inducing agent instead of acetic acid (Cell. Mol. Biol, 38, 189-199, 1992). Thus, referring to the method described in the report, the enteritis-suppressing action of the compound of the invention was evaluated.
Namely, TNBS or physiological saline as a normal group was administered into the rectum of male Wistar rats of 200 to 250 g. Thereafter, a test compound or 0.5% methyl cellulose (control group) was orally administered once a day and dissection was performed on each administered group on 21st day. A part of the large intestine 2 to 7 cm from the anus side was cut out and incised. After feces were removed by means of tweezers, the part was washed and a score of morbid conditions was evaluated and tissue weight was measured. The score of morbid conditions and a tissue weight increase-suppressing ratio were calculated as in the evaluation method of the above acetic acid-induced enteritis-suppressing action.

[2] = system: pyrimidine synthetic pathway; assay: Pyrimidine synthetic pathway-inhibitory action (influence on BUN level); format: in vivo; settings: oral administration of 30 mg/kg
Source text: Allopurinol which is an existing hyperuricemia therapeutic drug is known to cause renal dysfunction as an undesirable action. As mentioned previously, since allopurinol has a nucleic acid-like structure, as one cause thereof, it is presumed that it inhibits pyrimidine synthetic pathway. […] Thus, according to the method described in the document, the influence of the compounds of the invention on a BUN level was confirmed.

IC50 [1] [nM]	Structure (SMILES)	also measured
3.2	CCCOc1ccc(-c2ccc(C(=O)[O-])s2)cc1C#N.[Na+] [Example 1, sodium 5-(3-cyano-4-n-propoxyphenyl)thiophene-2-carboxylate]	uric acid-lowering ratio (ICR mice): 66%; suppression of intestinal tissue weight increase (male Wistar rats): ≥ 70%; inhibitory action on pyrimidine synthetic pathway (influence on BUN level) [2]: no inhibitory action
4.1	CCCCN(C)c1ccc(-c2ccc(C(=O)O)s2)cc1C#N [Example 8, sodium 5-{4-[butyl(methyl)amino]-3-cyanophenyl)thiophene-2-carboxylate]	–
2.9	CC(C)CSc1ccc(-c2ccc(C(=O)O)s2)cc1C#N [Example 9, sodium 5-[3-cyano-4-(isobutylthio)phenyl]thiophene-2-carboxylate]	–
2.8	N#Cc1cc(-c2ccc(C(=O)O)s2)ccc1OCc1cccnc1 [Example 19]	–
5.1	N#Cc1cc(-c2ccc(C(=O)O)s2)ccc1OCCn1cccc1 [Example 22]	–
13	N#CCCCOc1ccc(-c2ccc(C(=O)O)s2)cc1C#N [Example 23]	–
2.5	N#Cc1cc(-c2ccc(C(=O)O)s2)ccc1OCc1ccccc1 [Example 24]	–
1.8	N#Cc1cc(-c2ccc(C(=O)O)s2)ccc1N1CCCCC1 [Example 27]	–
2	CC1CCN(c2ccc(-c3ccc(C(=O)O)s3)cc2C#N)CC1 [Example 30]	–
5.9	CC(=O)c1cc(-c2ccc(C(=O)O)s2)ccc1OC1CCCC1 [Example 33]	–
6.3	N#Cc1cc(-c2ccc(C(=O)O)s2)ccc1Oc1ccccc1 [Example 34]	–
3.7	N#Cc1cc(-c2cc(F)c(C(=O)O)s2)ccc1OC/C=C/c1ccccc1 [Example 47]	–
1.5	CC(C)COc1c(F)cc(-c2ccc(C(=O)O)s2)cc1C#N [Example 54]	–

Structure (SMILES)	IC50 [1] [nM]	also measured
CC(C)COc1ccc(-c2ccc(C(=O)O)s2)cc1[N+](=O)[O-] [Example 3, 5-(3-nitro-4-isobutoxyphenyl)thiophene-2-carboxylic acid]	6.9	–
CC(C)COc1ccc(-c2cc(F)c(C(=O)O)s2)cc1C#N [Example 4, sodium 5-(3-cyano-4-isobutoxyphenyl)-3-fluorothiophene-2-carboxylate]	2.2	–
CC(C)COc1ccc(-c2ccc(-c3nnn[nH]3)s2)cc1[N+](=O)[O-] [Example 5, 5-[5-(4-isobutoxy-3-nitrophenyl)-2-thienyl]-1H-tetrazole]	9.3	–
